Laboratory results published in PMC10819888, “Benzimidazole-Based Derivatives as Apoptotic Antiproliferative Agents: Design, Synthesis, Docking, and Mechanistic Studies” (Molecules, 2024).

Experiments:
Test in all cases: NCI-60 one-dose assay
Assay type in all cases: cell-based
786-0 = conditions: Homo sapiens, 786-0 (Renal Cancer), read-out: Cell Inhibition Percent
ACHN = conditions: Homo sapiens, ACHN (Renal Cancer), read-out: Cell Inhibition Percent
CAKI-1 = conditions: Homo sapiens, CAKI-1 (Renal Cancer), read-out: Cell Inhibition Percent
CCRF-CEM = conditions: Homo sapiens, CCRF-CEM (Leukemia), read-out: Cell Inhibition Percent
COLO 205 = conditions: Homo sapiens, COLO 205 (Colon Cancer), read-out: Cell Inhibition Percent
DU-145 = conditions: Homo sapiens, DU-145 (Prostate Cancer), read-out: Cell Inhibition Percent
EKVX = conditions: Homo sapiens, EKVX (Non-Small Cell Lung Cancer), read-out: Cell Inhibition Percent
HCT-116 = conditions: Homo sapiens, HCT-116 (Colon Cancer), read-out: Cell Inhibition Percent
IGROV1 = conditions: Homo sapiens, IGROV-1, IGROV1 (ovarian cancer), read-out: Cell Inhibition Percent
K-562 = conditions: Homo sapiens, K562, K-562 (Leukemia), read-out: Cell Inhibition Percent
KM12 = conditions: Homo sapiens, KM12 (Colon Cancer), read-out: Cell Inhibition Percent
MCF7 = conditions: Homo sapiens, MCF7 (Breast Cancer), read-out: Cell Inhibition Percent
MDA-MB 231 = conditions: Homo sapiens, MDA-MB 231 (Breast Cancer), read-out: Cell Inhibition Percent
MOLT-4 = conditions: Homo sapiens, MOLT-4 (Leukemia), read-out: Cell Inhibition Percent
NCI-H522 = conditions: Homo sapiens, NCI-H522 (Non-Small Cell Lung Cancer), read-out: Cell Inhibition Percent
NCI/ADR-RES = conditions: Homo sapiens, NCI/ADR-RES (ovarian cancer), read-out: Cell Inhibition Percent
OVCAR-3 = conditions: Homo sapiens, OVCAR-3 (ovarian cancer), read-out: Cell Inhibition Percent
OVCAR-8 = conditions: Homo sapiens, OVCAR-8 (ovarian cancer), read-out: Cell Inhibition Percent
PC-3 = conditions: Homo sapiens, PC-3 (Prostate Cancer), read-out: Cell Inhibition Percent
RXF 393 = conditions: Homo sapiens, RXF 393 (Renal Cancer), read-out: Cell Inhibition Percent
SF-295 = conditions: Homo sapiens, SF-295 (CNS cancer), read-out: Cell Inhibition Percent
SF-539 = conditions: Homo sapiens, SF-539 (CNS cancer), read-out: Cell Inhibition Percent
SK-MEL-28 = conditions: Homo sapiens, SK-MEL-28 (Melanoma), read-out: Cell Inhibition Percent
SK-OV-3 = conditions: Homo sapiens, SK-OV-3 (ovarian cancer), read-out: Cell Inhibition Percent
SN12C = conditions: Homo sapiens, SN12C (Renal Cancer), read-out: Cell Inhibition Percent
SNB-19 = conditions: Homo sapiens, SNB-19 (CNS cancer), read-out: Cell Inhibition Percent
SW-620 = conditions: Homo sapiens, SW-620 (Colon Cancer), read-out: Cell Inhibition Percent
TK-10 = conditions: Homo sapiens, TK-10 (Renal Cancer), read-out: Cell Inhibition Percent
U251 = conditions: Homo sapiens, U-251, U251 (CNS cancer), read-out: Cell Inhibition Percent

SMILES: O=C(NN=Cc1ccc(Cl)cc1Cl)c1ccc2[nH]c(-c3ccc(Cl)cc3)nc2c1 [Compound 4f, N′-(2,4-Dichlorobenzylidene)-2-(4-chlorophenyl)-1H-benzimidazole-5-carbohydrazide]
- inhibition at 10 µM (786-0): 0%
- inhibition at 10 µM (ACHN): 9.01%
- inhibition at 10 µM (CAKI-1): 9.61%
- inhibition at 10 µM (CCRF-CEM): 48.1%
- inhibition at 10 µM (COLO 205): 0%
- inhibition at 10 µM (DU-145): 0%
- inhibition at 10 µM (EKVX): 13.7%
- inhibition at 10 µM (HCT-116): 8.63%
- inhibition at 10 µM (IGROV1): 31%
- inhibition at 10 µM (K-562): 53.7%
- inhibition at 10 µM (KM12): 1.75%
- inhibition at 10 µM (MCF7): 13.4%
- inhibition at 10 µM (MDA-MB 231): 11.4%
- inhibition at 10 µM (MOLT-4): 72.6%
- inhibition at 10 µM (NCI-H522): 7.79%
- inhibition at 10 µM (NCI/ADR-RES): 0%
- inhibition at 10 µM (OVCAR-3): 0%
- inhibition at 10 µM (OVCAR-8): 17.1%
- inhibition at 10 µM (PC-3): 7.03%
- inhibition at 10 µM (RXF 393): 12.5%
- inhibition at 10 µM (SF-295): 1.19%
- inhibition at 10 µM (SF-539): 5.73%
- inhibition at 10 µM (SK-MEL-28): 0%
- inhibition at 10 µM (SK-OV-3): 7.23%
- inhibition at 10 µM (SN12C): 1.23%
- inhibition at 10 µM (SNB-19): 7.76%
- inhibition at 10 µM (SW-620): 4.3%
- inhibition at 10 µM (TK-10): 0%
- inhibition at 10 µM (U251): 41%

SMILES: O=C(N/N=C/c1ccc(O)cc1)c1ccc2[nH]c(-c3ccc(Cl)cc3)nc2c1 [Compound 4i, N′-(4-Hydroxybenzylidene)-2-(4-chlorophenyl)-1H-benzimidazole-5-carbohydrazide]
- inhibition at 10 µM (786-0): 0%
- inhibition at 10 µM (ACHN): 4.33%
- inhibition at 10 µM (CAKI-1): 1.91%
- inhibition at 10 µM (CCRF-CEM): 13.6%
- inhibition at 10 µM (COLO 205): 0.44%
- inhibition at 10 µM (DU-145): 0%
- inhibition at 10 µM (EKVX): 0%
- inhibition at 10 µM (HCT-116): 0%
- inhibition at 10 µM (IGROV1): 17%
- inhibition at 10 µM (K-562): 0.25%
- inhibition at 10 µM (KM12): 2.85%
- inhibition at 10 µM (MCF7): 25.1%
- inhibition at 10 µM (MDA-MB 231): 2.75%
- inhibition at 10 µM (MOLT-4): 15.6%
- inhibition at 10 µM (NCI-H522): 9.85%
- inhibition at 10 µM (NCI/ADR-RES): 0%
- inhibition at 10 µM (OVCAR-3): 0%
- inhibition at 10 µM (OVCAR-8): 0%
- inhibition at 10 µM (PC-3): 0%
- inhibition at 10 µM (RXF 393): 0%
- inhibition at 10 µM (SF-295): 0%
- inhibition at 10 µM (SF-539): 1.95%
- inhibition at 10 µM (SK-MEL-28): 0%
- inhibition at 10 µM (SK-OV-3): 5.09%
- inhibition at 10 µM (SN12C): 0%
- inhibition at 10 µM (SNB-19): 0%
- inhibition at 10 µM (SW-620): 0%
- inhibition at 10 µM (TK-10): 0%
- inhibition at 10 µM (U251): 0%

SMILES: O=C(NN=Cc1ccc(F)cc1)c1ccc2[nH]c(-c3ccc(Cl)cc3)nc2c1 [Compound 4d, N′-(4-Fluorobenzylidene)-2-(4-chlorophenyl)-1H-benzimidazole-5-carbohydrazide]
- inhibition at 10 µM (786-0): 87.8%
- inhibition at 10 µM (ACHN): 64.3%
- inhibition at 10 µM (CAKI-1): 15.1%
- inhibition at 10 µM (CCRF-CEM): 78.6%
- inhibition at 10 µM (COLO 205): 58.7%
- inhibition at 10 µM (DU-145): 14.6%
- inhibition at 10 µM (EKVX): 26.8%
- inhibition at 10 µM (HCT-116): 51.4%
- inhibition at 10 µM (IGROV1): 59.8%
- inhibition at 10 µM (K-562): 61.2%
- inhibition at 10 µM (KM12): 35.1%
- inhibition at 10 µM (MCF7): 82.6%
- inhibition at 10 µM (MDA-MB 231): 36.1%
- inhibition at 10 µM (MOLT-4): 76.5%
- inhibition at 10 µM (NCI-H522): 3.87%
- inhibition at 10 µM (NCI/ADR-RES): 23%
- inhibition at 10 µM (OVCAR-3): 29.3%
- inhibition at 10 µM (OVCAR-8): 48.7%
- inhibition at 10 µM (PC-3): 53.2%
- inhibition at 10 µM (RXF 393): 22.6%
- inhibition at 10 µM (SF-295): 68.7%
- inhibition at 10 µM (SF-539): 12%
- inhibition at 10 µM (SK-MEL-28): 28.1%
- inhibition at 10 µM (SK-OV-3): 1.74%
- inhibition at 10 µM (SN12C): 58.8%
- inhibition at 10 µM (SNB-19): 39.6%
- inhibition at 10 µM (SW-620): 53.7%
- inhibition at 10 µM (TK-10): 5.63%
- inhibition at 10 µM (U251): 98.4%

SMILES: COc1cc(/C=N/NC(=O)c2ccc3[nH]c(-c4ccc(Cl)cc4)nc3c2)cc(OC)c1OC [Compound 4h, N′-(3,4,5-Trimethoxybenzylidene)-2-(4-chlorophenyl)-1H-benzimidazole-5 carbohydrazide]
- inhibition at 10 µM (786-0): 48.8%
- inhibition at 10 µM (ACHN): 32.3%
- inhibition at 10 µM (CAKI-1): 24%
- inhibition at 10 µM (CCRF-CEM): 63.4%
- inhibition at 10 µM (COLO 205): 54.3%
- inhibition at 10 µM (DU-145): 2.57%
- inhibition at 10 µM (EKVX): 4.23%
- inhibition at 10 µM (HCT-116): 63.8%
- inhibition at 10 µM (IGROV1): 31.6%
- inhibition at 10 µM (K-562): 67.3%
- inhibition at 10 µM (KM12): 38.2%
- inhibition at 10 µM (MCF7): 87.9%
- inhibition at 10 µM (MDA-MB 231): 0%
- inhibition at 10 µM (MOLT-4): 58.5%
- inhibition at 10 µM (NCI-H522): 21.7%
- inhibition at 10 µM (NCI/ADR-RES): 0%
- inhibition at 10 µM (OVCAR-3): 38.4%
- inhibition at 10 µM (OVCAR-8): 39.5%
- inhibition at 10 µM (PC-3): 40.1%
- inhibition at 10 µM (RXF 393): 63.7%
- inhibition at 10 µM (SF-295): 56%
- inhibition at 10 µM (SF-539): 56.2%
- inhibition at 10 µM (SK-MEL-28): 53.5%
- inhibition at 10 µM (SK-OV-3): 12.2%
- inhibition at 10 µM (SN12C): 31.5%
- inhibition at 10 µM (SNB-19): 29%
- inhibition at 10 µM (SW-620): 21.3%
- inhibition at 10 µM (TK-10): 22.6%
- inhibition at 10 µM (U251): 46.8%
